# Results published in patent US11505784B2, “Cell culture medium” (BOEHRINGER INGELHEIM INTERNATIONAL GMBH, priority 2015, dated 2022).
# Read-outs that look alike come from different tables or passages of the source.
# Key:
# [1] = tested on: CHO2 (CHO-DG44) cells producing Rituximab; details: for product titer: feed medium 2 with 0.25 g/l iron citrate
# Experimental: Cell concentrations and cell viabilities were determined by the trypan blue exclusion method using a CEDEX (Type 5.00, version 2.2) automated cell analyzer (Roche Innovatis, Bielefeld, Germany). The concentrations of produced recombinant proteins in the medium, such as IgG antibodies were quantified by a Konelab 60i (Thermo Scientific, Dreieich, Germany) analyzer based on photometrical methods or by the use of a HPLC method. The Konelab 60i instrument was also used for the quantification of metabolites such as glucose, lactic acid (lactate), glutamine, glutamate, and ammonium in the cell culture supernatants. Amino acid concentrations were determined by use of a GC 6890N/FID gas chromatograph (Agilent Technologies GmbH & Co.KG, Waldbronn, Germany). Amino acid analysis was performed by the EZ-faast protocol from Phenomenex (Aschaffenburg, Germany). Osmolarity profiles were analyzed by an osmomat auto device (Gonotec GmbH, Berlin, Germany). This method is based on the cryoscopic freezing point of a particular solution, which is proportional to the amount of dissolved particles. Dissolved carbon dioxide pCO2, dissolved oxygen pO2 and pH were determined on a daily basis with a Rapidlab 248/348 instrument (Siemens Healthcare Diagnostics GmbH, Eschborn, Germany).
# The experiment was performed in 250 ml shake flasks with a starting volume of 60 ml.
# Shake flasks were incubated at 37° C. in an incubator (10% CO2 atmosphere was provided from day 0 to 3 followed by 5% CO2 for one day and 0% CO2 until the end of the cultivation). Feeding solution was added every day at a feed rate of 30 ml/L/d starting on day two. Glucose was fed on demand to maintain the actual glucose concentration between 2-4 g/l over the cultivation period. Total cells, viable cells, viability, product concentration, glucose concentration, lactic acid concentration, ammonium concentration and osmolarity were measured every second day until the end of cultivation to monitor and control the experimental progress. Experiments were performed in duplicates (N=2).
# [2] = tested on: CHO2 (CHO-DG44) cells producing Rituximab; assay: Fed-batch shake flask comparison of iron carriers in basal medium 6.2a (Example 7); assay type: cell-based, Chinese hamster
# Experimental: Basal medium 6.2a is a precursor medium that is almost identical to basal medium 6.2 except for additionally comprising some non-essential cofactors and nucleotides and containing no succinic acid, putrescine at only 4.8 mg/l and a total amino acid concentration of 40 mM instead of 44 mM. Further Glutamine was added at a lower amount resulting in a ratio relative to isoleucine of 37.42.
# Feed medium 6.2a is a precursor medium that is almost identical to feed medium 6.2 except for additionally comprising some non-essential cofactors and nucleotides and slightly higher sodium bicarbonate and containing putrescine at only 33.02 mg/l and a total amino acid concentration of 511 mM instead of 508 mM. Further alanine was additionally present in the medium with a ratio relative to isoleucine of 0.15.
# Experiments were performed in duplicates (N=2).
# [3] = tested on: CHO2 (CHO-DG44) Rituximab cells; details: 0.1 g/l (so in the source) in RPMI based basal medium 3.1; feed medium 2 with 0.25 g/l iron citrate; 2 L bioreactor
# Experimental: Cell concentrations and cell viabilities were determined by the trypan blue exclusion method using a CEDEX (Type 5.00, version 2.2) automated cell analyzer (Roche Innovatis, Bielefeld, Germany). The concentrations of produced recombinant proteins in the medium, such as IgG antibodies were quantified by a Konelab 60i (Thermo Scientific, Dreieich, Germany) analyzer based on photometrical methods or by the use of a HPLC method. The Konelab 60i instrument was also used for the quantification of metabolites such as glucose, lactic acid (lactate), glutamine, glutamate, and ammonium in the cell culture supernatants. Amino acid concentrations were determined by use of a GC 6890N/FID gas chromatograph (Agilent Technologies GmbH & Co.KG, Waldbronn, Germany). Amino acid analysis was performed by the EZ-faast protocol from Phenomenex (Aschaffenburg, Germany). Osmolarity profiles were analyzed by an osmomat auto device (Gonotec GmbH, Berlin, Germany). This method is based on the cryoscopic freezing point of a particular solution, which is proportional to the amount of dissolved particles. Dissolved carbon dioxide pCO2, dissolved oxygen pO2 and pH were determined on a daily basis with a Rapidlab 248/348 instrument (Siemens Healthcare Diagnostics GmbH, Eschborn, Germany). […]
compound,measurement,setting,value
C[N+](C)(C)CCO.O=C([O-])CC(O)(CC(=O)[O-])C(=O)[O-].[Fe+2] [iron choline citrate],osmolarity of the culture compared to equimolar iron citrate (in words),"[1]; equimolar application, data not shown",lower osmolarity values
O=P([O-])([O-])[O-].[Fe+3] [iron phosphate],product titer,"[2]; iron carrier 0.3 g/L in basal medium 6.2a, feed medium 6.2a without iron choline citrate",2.29 g/L
O=P([O-])([O-])OP(=O)([O-])[O-].O=P([O-])([O-])OP(=O)([O-])[O-].O=P([O-])([O-])OP(=O)([O-])[O-].[Fe+3].[Fe+3].[Fe+3].[Fe+3] [iron pyro phosphate],product titer,"[2]; iron carrier 1.3 g/L in basal medium 6.2a, feed medium 6.2a without iron choline citrate",2.26 g/L
iron citrate,product titer,"[2]; parallel experiment: 0.1 g/L in basal medium 6.2a, feed medium 6.2a with 0.25 g/l iron citrate",2.38 g/L
same,product titer,[3],0.200 g/L
same,product titer,[1]; 0.1 g/L in basal medium 3.1,0.184 g/L
same,product titer,[1]; 0.2 g/L in basal medium 3.1,0.200 g/L
same,titer,[1]; 1.0 g/L in basal medium 3.1,201 mg/L
same,product titer,[1]; 1.0 g/L in basal medium 3.1,0.201 g/L
